Laboratory results: patent US20140135310A1, “SULPHONAMIDE DERIVATIVES OF ALICYCLIC AMINES FOR THE TREATMENT OF CENTRAL NERVOUS SYSTEM DISEASES” (Adamed Sp. z o.o., priority 2011, published 2014)

Columns and labels:
[1] = molecular target: dopaminergic receptors D3 (Homo sapiens, UniProt P35462); assay: Radioligand binding assay, dopaminergic D3 receptors; details: test compound 1×10^−6 M
In short: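 Competition radioligand binding at human D2, D3 and D4.4 receptors, detected by scintillation counting; nonspecific binding defined with excess unlabelled ligand. Results as percent inhibition of control specific binding; IC50 by Hill-equation nonlinear regression; Ki via Cheng-Prusoff, with radioligand KD from Scatchard plot.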

[2] = molecular target: T1, serotonin transporter (SERT) (Homo sapiens, UniProt P31645); assay: Radioligand binding assay, serotonin transporter (SERT); details: for inhibition at 1 µM / SERT [%]: binding assay, test compound 1×10^−6 M
T1 construct: expressed in transfected cells; host or cells: CHO cells
T1 sequence (P31645 whole entry): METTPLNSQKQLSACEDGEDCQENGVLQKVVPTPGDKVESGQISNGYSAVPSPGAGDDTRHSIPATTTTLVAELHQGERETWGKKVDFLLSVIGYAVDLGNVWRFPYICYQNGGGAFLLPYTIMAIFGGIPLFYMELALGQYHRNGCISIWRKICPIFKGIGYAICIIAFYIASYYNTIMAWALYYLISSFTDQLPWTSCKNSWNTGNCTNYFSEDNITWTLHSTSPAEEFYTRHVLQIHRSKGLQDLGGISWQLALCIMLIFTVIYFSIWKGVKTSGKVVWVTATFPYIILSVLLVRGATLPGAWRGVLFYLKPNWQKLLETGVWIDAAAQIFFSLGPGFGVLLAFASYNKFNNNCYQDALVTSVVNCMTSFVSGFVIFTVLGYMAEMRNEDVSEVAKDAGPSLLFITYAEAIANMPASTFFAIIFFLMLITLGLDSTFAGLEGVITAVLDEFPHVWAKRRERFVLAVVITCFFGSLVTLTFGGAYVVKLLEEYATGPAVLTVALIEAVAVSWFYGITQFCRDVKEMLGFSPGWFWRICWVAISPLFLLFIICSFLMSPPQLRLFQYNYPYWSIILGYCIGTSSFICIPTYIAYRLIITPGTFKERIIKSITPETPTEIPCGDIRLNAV
In short: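 Radioligand competition binding with scintillation detection; specific binding is total minus binding under excess unlabelled ligand. Reported as % of control specific binding or % inhibition; IC50 from Hill-equation non-linear regression of competition curves, and Ki via Cheng-Prusoff using radioligand concentration and Scatchard-derived KD.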

5-HT2C receptor = molecular target: T2, 5-HT2C receptor (Homo sapiens, UniProt P28335); assay: Radioligand binding assay, serotoninergic 5-HT2C receptors; details: test compound 1×10^−6 M
T2 construct: expressed in transfected cells; host or cells: HEK-293 cells
T2 sequence (P28335 33-458): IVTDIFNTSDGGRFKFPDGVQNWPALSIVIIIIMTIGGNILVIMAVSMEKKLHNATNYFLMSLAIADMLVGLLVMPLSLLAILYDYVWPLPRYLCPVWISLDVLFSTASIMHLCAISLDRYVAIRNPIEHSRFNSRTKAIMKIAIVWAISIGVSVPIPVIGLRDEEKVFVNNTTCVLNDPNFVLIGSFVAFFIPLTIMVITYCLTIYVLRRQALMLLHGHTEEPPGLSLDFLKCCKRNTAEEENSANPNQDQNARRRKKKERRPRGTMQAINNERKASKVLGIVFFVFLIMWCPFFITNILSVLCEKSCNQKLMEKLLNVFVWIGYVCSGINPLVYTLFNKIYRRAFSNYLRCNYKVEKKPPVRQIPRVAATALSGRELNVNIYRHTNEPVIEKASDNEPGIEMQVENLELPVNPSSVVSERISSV

[3] = molecular target: dopaminergic receptors D2 (Homo sapiens, UniProt P14416); assay: Radioligand binding assay, dopaminergic D2 receptors; details: binding assay, test compound 1×10^−6 M
Chain of dopaminergic receptors D2 (P14416 whole entry): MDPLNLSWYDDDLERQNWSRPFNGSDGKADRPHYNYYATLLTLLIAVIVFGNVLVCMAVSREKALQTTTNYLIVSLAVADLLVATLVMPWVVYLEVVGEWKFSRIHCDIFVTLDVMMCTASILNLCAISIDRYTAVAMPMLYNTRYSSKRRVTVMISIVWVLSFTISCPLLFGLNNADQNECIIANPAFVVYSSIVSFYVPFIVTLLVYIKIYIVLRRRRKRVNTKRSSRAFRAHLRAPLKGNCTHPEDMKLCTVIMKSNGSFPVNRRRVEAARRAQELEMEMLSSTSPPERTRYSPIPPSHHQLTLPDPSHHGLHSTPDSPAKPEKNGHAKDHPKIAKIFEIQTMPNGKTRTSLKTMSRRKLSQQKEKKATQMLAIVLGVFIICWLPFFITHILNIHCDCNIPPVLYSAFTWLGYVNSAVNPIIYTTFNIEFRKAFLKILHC
In short: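 Competition binding with scintillation counting of bound radioligand; specific binding taken as total minus non-specific binding measured with excess unlabelled ligand. IC50 obtained by Hill-equation non-linear regression of replicate-mean curves, then converted to Ki via Cheng–Prusoff using radioligand concentration and Scatchard-derived KD.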

[4] = molecular target: 5-HT7 serotoninergic receptors (Homo sapiens, UniProt P34969); assay: Cellular functional assay, 5-HT7 serotoninergic receptors; type: cell-based; details: for 5-HT7 ag [%]: agonist mode, percent of control specific agonist response; for Kb: apparent dissociation constant, modified Cheng Prusoff equation, read-out: 5-HT7 antag Kb; for 5-HT7 antag [%]: antagonist mode
Chain of 5-HT7 serotoninergic receptors (P34969 whole entry): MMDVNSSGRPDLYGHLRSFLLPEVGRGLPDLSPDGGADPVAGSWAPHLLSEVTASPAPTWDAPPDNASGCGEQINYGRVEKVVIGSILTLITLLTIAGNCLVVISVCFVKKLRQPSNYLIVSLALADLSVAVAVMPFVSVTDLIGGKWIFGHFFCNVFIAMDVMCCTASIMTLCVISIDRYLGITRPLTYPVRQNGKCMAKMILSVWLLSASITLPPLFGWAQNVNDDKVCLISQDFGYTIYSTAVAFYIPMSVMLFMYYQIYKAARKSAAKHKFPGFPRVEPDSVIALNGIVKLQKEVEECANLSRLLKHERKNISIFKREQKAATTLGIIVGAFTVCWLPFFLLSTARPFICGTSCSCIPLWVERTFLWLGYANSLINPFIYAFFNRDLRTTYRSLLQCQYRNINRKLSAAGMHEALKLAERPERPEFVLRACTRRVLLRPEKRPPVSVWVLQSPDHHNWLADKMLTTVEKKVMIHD
Description: The results are expressed as a percent of control specific agonist response ((measured specific response/control specific agonist response)×100) obtained in the presence of the test compounds.
The EC50 values (concentration producing a half-maximal specific response) and IC50 values (concentration causing a half-maximal inhibition of the control specific agonist response) were determined by non-linear regression analysis of the concentration-response curves generated with mean replicate values using Hill equation curve fitting (Y=D+[(A−D)/(1+(C/C50)nH)], where Y=specific response, D=minimum specific response, A=maximum specific response, C=compound concentration, and C50=EC50 or IC50, and nH=slope factor). This analysis was performed using a software developed at Cerep (Hill software) and validated by comparison with data generated by the commercial software SigmaPlot® 4.0 for Windows® (© 1997 by SPSS Inc.).
For the antagonists, the apparent dissociation constants (Kb) were calculated using the modified Cheng Prusoff equation (Kb=IC50/(1+(A/EC50A)), where A=concentration of reference agonist in the assay, and EC50A=EC50 value of the reference agonist).

α2C adrenergic receptors = molecular target: T3, α2C adrenergic receptors (Homo sapiens, UniProt P18825); assay: Radioligand binding assay, adrenergic α2C receptors; details: test compound 1×10^−6 M
T3 construct: expressed in transfected cells; host or cells: CHO cells
T3 sequence (P18825 1-462): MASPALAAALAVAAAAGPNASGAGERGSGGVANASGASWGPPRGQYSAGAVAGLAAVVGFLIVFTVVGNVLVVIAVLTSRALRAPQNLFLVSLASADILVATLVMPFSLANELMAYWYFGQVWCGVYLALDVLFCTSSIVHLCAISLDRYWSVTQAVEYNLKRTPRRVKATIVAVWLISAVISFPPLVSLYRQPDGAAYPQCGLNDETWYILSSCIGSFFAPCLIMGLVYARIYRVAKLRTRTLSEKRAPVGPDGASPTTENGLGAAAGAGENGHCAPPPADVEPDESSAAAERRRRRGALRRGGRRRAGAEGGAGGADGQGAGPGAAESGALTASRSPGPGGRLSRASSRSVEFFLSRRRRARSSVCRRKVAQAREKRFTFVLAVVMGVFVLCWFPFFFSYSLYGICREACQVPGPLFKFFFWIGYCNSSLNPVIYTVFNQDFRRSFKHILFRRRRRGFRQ
In short: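 Competitive radioligand binding at human α2C receptors, with scintillation counting. Nonspecific binding defined with excess unlabelled ligand; results given as % inhibition of control specific binding. IC50 from Hill-equation fits of competition curves; Ki via Cheng-Prusoff using radioligand concentration and Scatchard-derived KD.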

5-HT6 receptor = molecular target: T4, 5-HT6 receptor (Homo sapiens, UniProt P50406); assay: Radioligand binding assay, serotoninergic 5-HT6 receptors; details: for inhibition at 1 µM / 5-HT6 [%]: binding assay result in %, Table 5a
T4 construct: purchased PerkinElmer
T4 sequence (P50406 whole entry): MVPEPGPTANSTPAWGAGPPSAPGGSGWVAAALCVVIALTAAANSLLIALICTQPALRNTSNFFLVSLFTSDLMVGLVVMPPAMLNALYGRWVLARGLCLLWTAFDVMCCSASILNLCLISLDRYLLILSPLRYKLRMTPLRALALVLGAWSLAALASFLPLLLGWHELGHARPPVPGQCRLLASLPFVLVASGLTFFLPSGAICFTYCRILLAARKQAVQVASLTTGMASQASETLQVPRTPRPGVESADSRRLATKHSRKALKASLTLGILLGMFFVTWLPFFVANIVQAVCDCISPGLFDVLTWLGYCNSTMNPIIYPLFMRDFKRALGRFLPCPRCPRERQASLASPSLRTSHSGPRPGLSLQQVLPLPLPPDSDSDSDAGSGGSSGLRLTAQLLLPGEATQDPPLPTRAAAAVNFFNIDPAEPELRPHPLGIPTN
In short: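 Values are Ki from Cheng–Prusoff, taking IC50 from Hill nonlinear regression of competition curves and KD from a Scatchard plot. Specific binding was total minus binding with excess unlabelled ligand. Radioligand displacement was detected by scintillation counting, and data were also reported as percent of control specific binding.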

Chain of dopaminergic receptors D3 (P35462 whole entry): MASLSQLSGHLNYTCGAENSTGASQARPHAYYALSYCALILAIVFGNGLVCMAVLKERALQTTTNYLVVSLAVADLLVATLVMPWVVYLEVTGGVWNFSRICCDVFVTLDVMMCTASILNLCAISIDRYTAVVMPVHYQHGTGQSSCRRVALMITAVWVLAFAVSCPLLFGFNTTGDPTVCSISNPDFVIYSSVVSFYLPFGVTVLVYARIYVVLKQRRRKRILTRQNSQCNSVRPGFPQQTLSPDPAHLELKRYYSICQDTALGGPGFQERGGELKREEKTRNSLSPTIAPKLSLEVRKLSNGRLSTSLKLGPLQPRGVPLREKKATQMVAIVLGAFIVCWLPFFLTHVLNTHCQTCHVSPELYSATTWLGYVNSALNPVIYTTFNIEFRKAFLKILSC

| Structure (SMILES) | inhibition at 1 µM [1] [%] | inhibition at 1 µM [2] [%] | inhibition at 1 µM (5-HT2C receptor) [%] | inhibition at 1 µM [3] [%] | 5-HT7 ag [%] [4] [%] | inhibition at 1 µM (α2C adrenergic receptors) [%] | inhibition at 1 µM (5-HT6 receptor) [%] | Kb [4] [nM] | D3 [%] [1] [%] | SERT [%] [2] [%] | 5-HT2C [%] (5-HT2C receptor) | D2 [%] [3] [%] | 5-HT7 antag [%] [4] [%] | α2C [%] (α2C adrenergic receptors) | 5-HT6 [%] (5-HT6 receptor) | Ki ([2]; read-out: Inhibition constants Ki for SERT, SERT) [nM] | Ki (5-HT6 receptor; read-out: Inhibition constants Ki, 5-HT6) [nM] |
| --- | --- | --- | --- | --- | --- | --- | --- | --- | --- | --- | --- | --- | --- | --- | --- | --- | --- |
| O=S(=O)(NC1CCN(CCCc2noc3cc(F)ccc23)C1)c1cccc2ccccc12 (centres unmarked) [Compound 20, N-[1-[3-(6-Fluoro-1,2-benzoxazol-3-yl)propyl]pyrrolidin-3-yl]naphthalene-1-sulphonamide] | 69 | 6 | 33 | 95 | −2 | 78 | 97 | – | – | – | – | – | – | – | – | – | – |
| O=S(=O)(NC1CCN(CCCc2noc3cc(F)ccc23)C1)c1ccc2ccccc2c1 (centres unmarked) [Compound 21, N-[1-[3-(6-Fluoro-1,2-benzoxazol-3-yl)propyl]pyrrolidin-3-yl]naphthalene-2-sulphonamide] | 96 | 59 | 71 | 100 | −1 | 78 | 95 | 1.7 | – | – | – | – | – | – | – | – | – |
| O=S(=O)(NC1CCN(CCCc2noc3cc(F)ccc23)C1)c1ccc2cc(Cl)ccc2c1 (centres unmarked) [Compound 23, 6-Chloro-N-[1-[3-(6-fluoro-1,2-benzoxazol-3-yl)propyl]pyrrolidin-3-yl]naphthalene-2-sulphonamide] | 95 | 53 | 67 | 100 | −2 | 89 | 97 | – | – | – | – | – | – | – | – | – | – |
| O=S(=O)(NC1CCN(CCCc2noc3cc(F)ccc23)C1)c1cc2ccccc2s1 (centres unmarked) [Compound 25, N-[1-[3-(6-Fluoro-1,2-benzoxazol-3-yl)propyl]pyrrolidin-3-yl]-benzothiophene-2-sulphonamide] | 97 | 42 | 83 | 98 | −2 | 90 | 95 | 1.4 | – | – | – | – | – | – | – | – | – |
| O=S(=O)(NC1CCN(CCCc2noc3cc(F)ccc23)C1)c1csc2ccccc12 (centres unmarked) [Compound 26, N-[1-[3-(6-Fluoro-1,2-benzoxazol-3-yl)propyl]pyrrolidin-3-yl]-benzothiophene-3-sulphonamide] | 81 | 66 | 51 | 98 | −3 | 76 | 98 | – | – | – | – | – | – | – | – | – | – |
| Cc1c(S(=O)(=O)NC2CCN(CCCc3noc4cc(F)ccc34)C2)sc2ccc(F)cc12 (centres unmarked) [Compound 28, 5-Fluoro-N-[1-[3-(6-fluoro-1,2-benzoxazol-3-yl)propyl]pyrrolidin-3-yl]-3-methyl-benzothiophene-2-sulphonamide] | 96 | 54 | 72 | 97 | −3 | 93 | 96 | – | – | – | – | – | – | – | – | – | – |
| O=S(=O)(NC1CCN(CCCc2noc3cc(F)ccc23)CC1)c1cccc2ccccc12 [Compound 34, N-[1-[3-(6-Fluoro-1,2-benzoxazol-3-yl)propyl]-4-piperidine]-naphthalene-1-sulphonamide] | 58 | 43 | 94 | 76 | −1 | 94 | 40 | 0.077 | – | – | – | – | – | – | – | – | – |
| O=S(=O)(NC1CCN(CCOc2nsc3ccccc23)C1)c1ccc2ccccc2c1 (centres unmarked) [Compound 39, N-[1-[2-(1,2-Benzothiazol-3-yloxy)ethyl]pyrrolidin-3-yl]naphthalene-2-sulphonamide] | 95 | 29 | 74 | 86 | 1 | 92 | 92 | – | – | – | – | – | – | – | – | – | – |
| O=S(=O)(NC1CN(CCOc2cccc3[nH]ccc23)C1)c1cccc2ccccc12 [Compound 49, N-[1-[2-(1H-Indol-4-yloxy)ethyl]azetidin-3-yl]naphthalene-1-sulphonamide] | 106 | 41 | 59 | 99 | 26 | 110 | 34 | – | – | – | – | – | – | – | – | – | – |
| O=S(=O)(NC1CN(CCOc2cccc3[nH]ccc23)C1)c1ccc2ccccc2c1 [Compound 50, N-[1-[2-(1H-Indol-4-yloxy)ethyl]azetidin-3-yl]naphthalene-2-sulphonamide] | 104 | 20 | 54 | 96 | 21 | 108 | 43 | – | – | – | – | – | – | – | – | – | – |
| O=S(=O)(NC1CCN(CCOc2cccc3[nH]ccc23)CC1)c1ccccc1 [Compound 55, N-[1-[2-(1H-Indol-4-yloxy)ethyl]-4-piperidine]benzenesulphonamide] | – | – | – | – | 5 | – | – | – | 93 | 6 | 30 | 44 | 48 | 99 | 3 | – | – |
| O=S(=O)(NC1CCN(CCCc2c[nH]c3ccc(F)cc23)C1)c1ccc2ccccc2c1 (centres unmarked) [Compound 80, N-[1-[3-(5-Fluoro-1H-indol-3-yl)propyl]pyrrolidin-3-yl]naphthalene-2-sulphonamide] | 100 | 104 | 86 | 96 | 3 | 88 | 96 | – | – | – | – | – | – | – | – | 0.5 | 15 |
| O=S(=O)(NC1CN(CCOc2cccc3c2OCCO3)C1)c1ccc(Cl)cc1 [Compound 92, 4-Chloro-N-[1-[2-(2,3-dihydro-1,4-benzodioxan-8-yloxy)ethyl]azetidin-3-yl]benzene-sulphonamide] | – | – | – | – | 18 | – | – | – | 60 | 10 | 52 | 49 | 69 | 76 | 23 | – | – |
| O=S(=O)(NCC1CCN(CCOc2cccc3c2OCCO3)C1)c1ccc(F)c(Cl)c1 (centres unmarked) [Compound 317, 3-Chloro-N-[[1-[2-(2,3-dihydro-1,4-benzodioxin-5-yloxy)ethyl]pyrrolidin-3-yl]methyl]-4-fluorobenzenesulphonamide] | 49 | 63 | 45 | 53 | – | 95 | 76 | – | – | – | – | – | – | – | – | – | – |
